Measured values published in US20260297042A1, “BIARYLAMIDE DERIVATIVES AND THEIR USE AS PKMYT1 INHIBITORS” (CANCER RESEARCH TECHNOLOGY LIMITED, priority 2023, published 2026).
Counter-ions that a name gives are not always drawn.

Tests used:
Human PKMYT1 = target: T1, Human PKMYT1 (Homo sapiens, UniProt Q99640); experiment: PKMYT1 biochemical ADP-Glo enzymatic assay; settings: ADP-Glo
T1 construct: Human PKMYT1 75-362 was cloned as a TEV cleavable 6xHis fusion; 6xHis (TEV cleavable) (cleaved yes); made in house; host or cells: bacterial cells
T1 sequence (Q99640 75-362): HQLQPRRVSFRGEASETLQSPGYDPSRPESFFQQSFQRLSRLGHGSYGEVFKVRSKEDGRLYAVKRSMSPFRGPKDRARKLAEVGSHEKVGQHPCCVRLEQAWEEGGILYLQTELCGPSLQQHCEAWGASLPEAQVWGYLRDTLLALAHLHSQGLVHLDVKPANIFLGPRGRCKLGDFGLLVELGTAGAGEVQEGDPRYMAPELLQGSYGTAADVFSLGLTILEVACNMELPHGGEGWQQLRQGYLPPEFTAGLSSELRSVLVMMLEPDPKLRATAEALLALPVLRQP
Summary of the method: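 Purified untagged human PKMYT1 75-362 at 15 nM final was tested in HEPES pH 7.5 with MgCl2, EGTA, Brij-35 and 1% DMSO. Intrinsic ATPase activity was measured with 500 uM ATP over 60 min at 26° C. ADP-Glo luminescence was read and IC50 fitted from 10-point, 3-fold dilution curves.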

WEE1 = target: T2, WEE1 (Homo sapiens, UniProt P30291); experiment: Selectivity versus WEE1 assay (ADP-Glo enzymatic assay); type: biochemical; settings: for IC50: ADP-Glo; for PKMYT1 vs. WEE1 selectivity: fold difference in selectivity for PKMYT1 over WEE1
T2 construct: purchased Thermo Fisher PR7373A
Summary of the method: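 WEE1 at 15 nM final in 50 mM HEPES pH 7.5, 10 mM MgCl2, 1 mM EGTA, 0.01% Brij-35, 1% DMSO; reaction started with 30 µM ATP, 60 min at 26 °C. ADP-Glo luminescence; IC50 from dose-response curves, replicates within 3-fold and r2 >0.9.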

[1] = PKMYT1 kinase domain 15 nM, banded values
[2] = 15 nM PKMYT1 kinase domain, 500 µM ATP, 60 minutes at 26° C., banded
[3] = 15 nM WEE1, 60 minutes at 26° C., banded
[4] = banded, ">N" = at least in this band but could be higher

T2 sequence (P30291 whole entry): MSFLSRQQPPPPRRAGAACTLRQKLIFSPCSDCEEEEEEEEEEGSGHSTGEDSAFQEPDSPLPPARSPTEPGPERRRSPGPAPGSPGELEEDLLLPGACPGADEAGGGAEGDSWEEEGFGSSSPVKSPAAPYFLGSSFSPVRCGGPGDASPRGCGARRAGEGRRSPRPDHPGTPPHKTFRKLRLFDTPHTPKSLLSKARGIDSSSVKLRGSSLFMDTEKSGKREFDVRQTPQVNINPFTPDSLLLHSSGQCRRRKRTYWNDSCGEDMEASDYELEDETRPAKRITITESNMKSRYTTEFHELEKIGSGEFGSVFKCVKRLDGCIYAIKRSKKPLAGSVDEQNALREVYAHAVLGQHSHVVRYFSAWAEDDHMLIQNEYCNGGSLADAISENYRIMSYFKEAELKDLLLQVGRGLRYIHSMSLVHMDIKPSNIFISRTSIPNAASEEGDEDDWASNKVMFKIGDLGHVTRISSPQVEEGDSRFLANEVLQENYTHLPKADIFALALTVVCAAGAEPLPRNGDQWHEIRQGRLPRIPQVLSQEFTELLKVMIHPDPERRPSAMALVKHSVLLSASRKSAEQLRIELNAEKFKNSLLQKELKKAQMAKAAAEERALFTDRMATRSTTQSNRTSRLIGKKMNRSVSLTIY

SMILES | IC50 (Human PKMYT1; [1]) | IC50 (WEE1; WEE1 15 nM, banded values) | PKMYT1 vs. WEE1 selectivity (WEE1; banded) | IC50 (Human PKMYT1; [2]) | IC50 (WEE1; [3]) | PKMYT1 vs. WEE1 selectivity (WEE1; [4])
Cc1ccc(O)c(C)c1NC(=O)c1cnc(Nc2onc(C)c2C(N)=O)s1 [BAA-448, 5-((5-((3-hydroxy-2,6-dimethylphenyl)carbamoyl)thiazol-2-yl)amino)-3-methylisoxazole-4-carboxamide] | < 50 nM | > 11000 nM | Y (1000-5000 fold) |  |  | 
CC(=O)Nc1ccc(Nc2ncc(C(=O)Nc3c(C)ccc(O)c3C)s2)cc1 [BAA-513, 2-((4-Acetamidophenyl)amino)-N-(3-hydroxy-2,6-dimethylphenyl)thiazole-5-carboxamide] | < 50 nM | 1000 to 11000 nM | X (100-<1000 fold) |  |  | 
COCC(=O)N1CC[C@@H](n2ccc(Nc3ncc(C(=O)Nc4c(C)ccc(O)c4C)s3)n2)C1 [BAA-092] |  |  |  | 50 to 1000 nM | > 11000 nM | >X (100-<1000 fold)
Cc1ccc(O)c(C)c1NC(=O)c1cnc(Nc2ccn(CC(=O)N3CC4(C3)CN(C(=O)OC(C)(C)C)C4)n2)s1 [BAA-144, tert-butyl 6-[2-[3-[[5-[(3-hydroxy-2,6-dimethyl-phenyl)carbamoyl]thiazol-2-yl]amino]pyrazol-1-yl]acetyl]-2,6-diazaspiro[3.3]heptane-2-carboxylate] |  |  |  | < 50 nM | 1000 to 11000 nM | X (100-<1000 fold)
Cc1ccc(O)c(C)c1NC(=O)c1cnc(Nc2ccc(F)c(C#N)c2)s1 [BAA-282, 2-((3-cyano-4-fluorophenyl)amino)-N-(3-hydroxy-2,6-dimethylphenyl)thiazole-5-carboxamide] |  |  |  | 1000 to 11000 nM | > 11000 nM | W (10-<100 fold)
Cc1ccc(O)c(C)c1NC(=O)c1cnc(NCC2CCNCC2)s1 [BAA-079, N-(3-hydroxy-2,6-dimethyl-phenyl)-2-(4-piperidylmethylamino)thiazole-5-carboxamide hydrochloride] |  |  |  | 1000 to 11000 nM | > 11000 nM | >W (10-<100 fold)
CCN(CCC#N)C(=O)Cn1cc(C)c(Nc2ncc(C(=O)Nc3c(C)ccc(O)c3C)s2)n1 [BAA-532, 2-((1-(2-((2-cyanoethyl)(ethyl)amino)-2-oxoethyl)-4-methyl-1H-pyrazol-3-yl)amino)-N-(3-hydroxy-2,6-dimethylphenyl)thiazole-5-carboxamide] | < 50 nM | 1000 to 11000 nM | X (100-<1000 fold) |  |  | 
Cc1ccc(O)c(C)c1NC(=O)c1cnc(Nc2ccn(CCCN3CCOCC3)n2)s1 [BAA-101] |  |  |  | 50 to 1000 nM | > 11000 nM | >X (100-<1000 fold)
CCN(CC)C(=O)N1CC[C@@H](n2ccc(Nc3ncc(C(=O)Nc4c(C)ccc(O)c4C)s3)n2)C1 [BAA-112, 2-[[1-[(3R)-1-(Diethylcarbamoyl)pyrrolidin-3-yl]pyrazol-3-yl]amino]-N-(3-hydroxy-2,6-dimethyl-phenyl)thiazole-5-carboxamide] |  |  |  | 50 to 1000 nM | > 11000 nM | >Y (1000-5000 fold)
Cc1ccc(O)c(C)c1NC(=O)c1cnc(Nc2ccc(C#N)c(F)c2)s1 [BAA-283, 2-((4-cyano-3-fluorophenyl)amino)-N-(3-hydroxy-2,6-dimethylphenyl)thiazole-5-carboxamide] |  |  |  | 1000 to 11000 nM | > 11000 nM | W (10-<100 fold)
Cc1ccc(O)c(C)c1NC(=O)c1cnc(Nc2cc(C)n(C)n2)s1 [BAA-122, 2-[(1,5-dimethylpyrazol-3-yl)amino]-N-(3-hydroxy-2,6-dimethyl-phenyl)thiazole-5-carboxamide] |  |  |  | 50 to 1000 nM | 1000 to 11000 nM | X (100-<1000 fold)
Cc1ccc(O)c(C)c1NC(=O)c1cnc(Nc2ncc(C(C)(C)C)o2)s1 [BAA-449, 2-((5-(tert-butyl)oxazol-2-yl)amino)-N-(3-hydroxy-2,6-dimethylphenyl)thiazole-5-carboxamide] | 50 to 1000 nM | > 11000 nM | W (10-<100 fold) |  |  | 
Cc1ccc(O)c(C)c1NC(=O)c1cnc(Nc2ccn(CC(=O)N3CCNCC3)n2)s1 [BAA-222, N-(3-hydroxy-2,6-dimethylphenyl)-2-((1-(2-oxo-2-(piperazin-1-yl)ethyl)-1H-pyrazol-3-yl)amino)thiazole-5-carboxamide] |  |  |  | < 50 nM | > 11000 nM | X (100-<1000 fold)
Cc1ccc(O)c(C)c1NC(=O)c1cnc(Nc2ccn(CC(=O)N3CCN(C(C)C)CC3)n2)s1 [BAA-178] |  |  |  | 50 to 1000 nM | > 11000 nM | X (100-<1000 fold)
Cc1ccc(O)c(C)c1NC(=O)c1cnc(Nc2ccon2)s1 [BAA-009, N-(3-hydroxy-2,6-dimethyl-phenyl)-2-(isoxazol-3-ylamino)thiazole-5-carboxamide] |  |  |  | < 50 nM | > 11000 nM | X (100-<1000 fold)
Cc1c(O)ccc(Br)c1NC(=O)c1cnc(Nc2ccn(CC(=O)N3CCCC3)n2)s1 [BAA-519, N-(6-Bromo-3-hydroxy-2-methyl-phenyl)-2-[[1-(2-oxo-2-pyrrolidin-1-yl-ethyl)pyrazol-3-yl]amino]thiazole-5-carboxamide] | < 50 nM | > 11000 nM | X (100-<1000 fold) |  |  | 
Cc1ccc(O)c(C)c1NC(=O)c1cnc(Nc2ccc(NC(=O)CC(C)C)cn2)s1 [BAA-299, N-(3-hydroxy-2,6-dimethylphenyl)-2-((5-(3-methylbutanamido)pyridin-2-yl)amino)thiazole-5-carboxamide] |  |  |  | < 50 nM | 1000 to 11000 nM | X (100-<1000 fold)
Cc1ccc(O)c(C)c1NC(=O)c1cnc(Nc2ccc3cc(F)ccc3n2)s1 [BAA-288, 2-((6-fluoroquinolin-2-yl)amino)-N-(3-hydroxy-2,6-dimethylphenyl)thiazole-5-carboxamide] |  |  |  | 50 to 1000 nM | > 11000 nM | X (100-<1000 fold)
Cc1ccc(O)c(C)c1NC(=O)c1cnc(Nc2c3ccncc3nn2C)s1 [BAA-244, N-(3-hydroxy-2,6-dimethylphenyl)-2-((2-methyl-2H-pyrazolo[3,4-c]pyridin-3-yl)amino)thiazole-5-carboxamide] |  |  |  | < 50 nM | 1000 to 11000 nM | X (100-<1000 fold)
Cc1ccc(O)c(C)c1NC(=O)c1cnc(Nc2ccn([C@@H]3CCN(C(=O)Cn4cccn4)C3)n2)s1 [BAA-103, N-(3-hydroxy-2,6-dimethyl-phenyl)-2-[1-[(3R)-1-(2-pyrazol-1-ylacetyl)pyrrolidin-3-yl]pyrazol-3-yllamino]thiazole-5-carboxamide] |  |  |  | 50 to 1000 nM | > 11000 nM | >X (100-<1000 fold)
Cc1ccc(O)c(C)c1NC(=O)c1cnc(Nc2cc(C(C)(C)O)n(C)n2)s1 [BAA-256, N-(3-hydroxy-2,6-dimethylphenyl)-2-((5-(2-hydroxypropan-2-yl)-1-methyl-1H-pyrazol-3-yl)amino)thiazole-5-carboxamide] |  |  |  | < 50 nM | 1000 to 11000 nM | W (10-<100 fold)
Cc1ccc(O)c(C)c1NC(=O)c1cnc(Nc2ccn([C@@H]3CCN(C(=O)OC(C)(C)C)C3)n2)s1 [BAA-043, tert-Butyl(3R)-3-[3-[[5-[(3-hydroxy-2.6-dimethyl-phenyl)carbamoyl]thiazol-2-yl]amino]pyrazol-1-yl]pyrrolidine-1-carboxylate] |  |  |  | 50 to 1000 nM | > 11000 nM | >Y (1000-5000 fold)
Cc1ccnc(Nc2ncc(C(=O)Nc3c(C)ccc(O)c3C)s2)n1 [BAA-567, N-(3-hydroxy-2,6-dimethylphenyl)-2-((4-methylpyrimidin-2-yl)amino)thiazole-5-carboxamide] | < 50 nM | > 11000 nM | Y (1000-5000 fold) |  |  | 
Cc1ccc(O)c(C)c1NC(=O)c1cnc(Nc2ccn(CC(=O)N3CCCN(C)CC3)n2)s1 [BAA-171] |  |  |  | < 50 nM | > 11000 nM | X (100-<1000 fold)
